These results are taken from ChEMBL document CHEMBL1158828, “(+)-Myristinins A and D from Knema elegans, which inhibit DNA polymerase beta and cleave DNA” (J Nat Prod, 2005).

The source made the active and inactive calls. The rule behind the calls is not given here.

Test [1] deals with Escherichia coli. Kind of test: Induction of strand scission activity in Escherichia coli supercoiled pSP64 DNA assessed as relaxation of DNA at 10 µM by agarose gel electrophoresis in presence of Cu2+.
Test [2] addresses T1, DNA polymerase beta (Rattus norvegicus, UniProt P06766). As to the kind of experiment: Inhibition of rat recombinant DNA polymerase beta in absence of bovine serum albumin.
Test [3] deals with DNA polymerase beta (Rattus norvegicus) (UniProt P06766). Kind of test: Activity of rat recombinant DNA polymerase beta using variable levels of dNTP concentration.
For test [4], the system named is Escherichia coli. As to the kind of experiment: Induction of strand scission activity in Escherichia coli supercoiled pSP64 DNA assessed as relaxation of DNA after 1 hr by agarose gel electrophoresis in presence of Cu2+.
Test [5] concerns the target T1, DNA polymerase beta. As to the kind of experiment: Activity of rat recombinant DNA polymerase beta using variable levels of DNA template-primer.
A short description of test [6]: Potentiation of bleomycin-induced cytotoxicity against mouse P388D1 cells assessed as reduction in cell viability at 9 uM after 6 hrs by trypan blue exclusion test. The test is classed as functional.
In test [7] the target is T1, DNA polymerase beta. As to the kind of experiment: Inhibition of rat recombinant DNA polymerase beta in presence of bovine serum albumin.

A word on the IC50: it is the concentration that gives 50% inhibition. A word on the Ki: it is a measure of affinity in units of concentration, obtained from inhibition or displacement. For `O=C(CCCCCCCCc1ccccc1)c1c(O)cc(O)c([C@@H]2C[C@@H](c3ccc(O)cc3)Oc3cc(O)ccc32)c1O`, in the test on Escherichia coli [1], the result was Active. The values for the IC50 on DNA polymerase beta [2] and on DNA polymerase beta [7] were 1.2 µM and 4.3 µM, respectively. Moreover, the Kii in test [3] amounted to 0.8 µM. Moreover, the Kis in test [3] was 23 µM. The Activity result in the test on Escherichia coli [4] was “Dose-dependent effect”; in test [6], 30%. Further, the Ki at DNA polymerase beta [5] was 12 µM.

Consider `CCCCCCCCCCCC(=O)c1c(O)cc(O)c([C@@H]2C[C@@H](c3ccc(O)cc3)Oc3cc(O)ccc32)c1O`, for which the result in the test on Escherichia coli [1] was Active. In addition, the IC50 at DNA polymerase beta [2] is 2.7 µM; on DNA polymerase beta [7] it was 12 µM. For the same compound, the Kii in test [3] was 4.3 µM. Further, in test [3], the Kis was found to be 8.2 µM. For the same compound, the Activity entry is “Dose-dependent effect” in the test on Escherichia coli [4] and 30% in test [6]. Further, on DNA polymerase beta [5], the Ki was 11 µM.
